What all share (format): biochemical
The target in assay [1] is T1, KDM2B (FBXL10) (Homo sapiens, UniProt Q8NHM5).
T1 construct: 1-650; purchased BPS Bioscience, US; host or cells: Bac (baculovirus/insect cells)
T1 sequence (Q8NHM5 1-650): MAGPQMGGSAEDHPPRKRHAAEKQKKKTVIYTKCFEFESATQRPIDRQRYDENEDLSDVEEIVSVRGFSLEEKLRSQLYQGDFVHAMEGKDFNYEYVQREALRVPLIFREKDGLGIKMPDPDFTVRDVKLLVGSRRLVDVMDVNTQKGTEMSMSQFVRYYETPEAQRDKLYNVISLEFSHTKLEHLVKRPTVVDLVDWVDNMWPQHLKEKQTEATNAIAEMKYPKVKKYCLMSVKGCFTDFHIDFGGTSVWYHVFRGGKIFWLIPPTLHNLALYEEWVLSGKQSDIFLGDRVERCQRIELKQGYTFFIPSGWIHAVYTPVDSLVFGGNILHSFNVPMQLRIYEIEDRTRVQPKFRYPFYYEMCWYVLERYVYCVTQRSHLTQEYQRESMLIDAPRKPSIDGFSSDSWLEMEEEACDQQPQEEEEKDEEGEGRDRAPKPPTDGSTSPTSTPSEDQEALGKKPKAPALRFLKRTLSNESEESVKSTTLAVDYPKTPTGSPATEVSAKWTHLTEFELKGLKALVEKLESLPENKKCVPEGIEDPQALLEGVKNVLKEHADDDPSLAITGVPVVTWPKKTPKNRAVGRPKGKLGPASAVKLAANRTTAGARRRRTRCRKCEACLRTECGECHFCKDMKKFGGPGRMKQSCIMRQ
The assay is described as follows: Histone lysine demethylase AlphaLISA assay, KDM2B. To be noted: in vitro enzyme, read-out: KDM2B IC50 (HDME Inhibition). On the procedure: (§1) Histone lysine demethylase AlphaLISA assays are performed to determine IC50 values. […] Assays are performed analogously to the protocol described by PerkinElmer (Roy et al. PerkinElmer Technical Note: AlphaLISA #12, April 2011).
(§2) Assays are performed analogously to the protocol described by PerkinElmer (Roy et al. PerkinElmer Technical Note: AlphaLISA #12, April 2011).
(§3) Enzymes (final assay concentration 0.1-2.5 nM) are dissolved in enzyme buffer and incubated for 10 min before 5 μL is added to 5 μL 3% DMSO solutions of compounds in enzyme buffer, incubated for another 10 minutes, before 5 μL substrate solution is added and the reaction mixture is incubated at room temperature. 10 μL acceptor beads, suspended Epigenetic Buffer (Perkin Elmer AL008) from stock, are added and the suspension is incubated in the dark at room temperature, before 10 μL suspension of streptavidin donor beads (Perkin Elmer 6760002) in Epigenetic Buffer is added. After incubation at room temperature in the dark the plates are read.
(§4) Substrate solution: Substrate (final assay concentration 50-200 nM), 50 mM Hepes (pH 7.4-8.0), 0.003% Tween-20, 0.1% BS, 25 μM L-Asc, 10 μM α-KG. Enzyme Buffer: 50 mM Hepes (pH 7.4-8.0), 0.003% Tween-20, 0.1% BSA; 5 μM (NH4)2Fe(SO4)2

Assay [2] concerns the target PHF8 (KDM7) (Homo sapiens, UniProt Q9UPP1). Kind of assay: Histone lysine demethylase AlphaLISA assay, PHF8. To be noted: in vitro enzyme, read-out: PHF8 IC50 (HDME Inhibition). The protocol:
as §1, §2, §3, §4
On the technique in general: Bead proximity is the source of the signal in Alpha formats.

In assay [3] the target is T2, KDM5B (PLU-1) (Homo sapiens, UniProt Q9UGL1).
T2 construct: 1-809; host or cells: E. coli
T2 sequence (Q9UGL1 1-809): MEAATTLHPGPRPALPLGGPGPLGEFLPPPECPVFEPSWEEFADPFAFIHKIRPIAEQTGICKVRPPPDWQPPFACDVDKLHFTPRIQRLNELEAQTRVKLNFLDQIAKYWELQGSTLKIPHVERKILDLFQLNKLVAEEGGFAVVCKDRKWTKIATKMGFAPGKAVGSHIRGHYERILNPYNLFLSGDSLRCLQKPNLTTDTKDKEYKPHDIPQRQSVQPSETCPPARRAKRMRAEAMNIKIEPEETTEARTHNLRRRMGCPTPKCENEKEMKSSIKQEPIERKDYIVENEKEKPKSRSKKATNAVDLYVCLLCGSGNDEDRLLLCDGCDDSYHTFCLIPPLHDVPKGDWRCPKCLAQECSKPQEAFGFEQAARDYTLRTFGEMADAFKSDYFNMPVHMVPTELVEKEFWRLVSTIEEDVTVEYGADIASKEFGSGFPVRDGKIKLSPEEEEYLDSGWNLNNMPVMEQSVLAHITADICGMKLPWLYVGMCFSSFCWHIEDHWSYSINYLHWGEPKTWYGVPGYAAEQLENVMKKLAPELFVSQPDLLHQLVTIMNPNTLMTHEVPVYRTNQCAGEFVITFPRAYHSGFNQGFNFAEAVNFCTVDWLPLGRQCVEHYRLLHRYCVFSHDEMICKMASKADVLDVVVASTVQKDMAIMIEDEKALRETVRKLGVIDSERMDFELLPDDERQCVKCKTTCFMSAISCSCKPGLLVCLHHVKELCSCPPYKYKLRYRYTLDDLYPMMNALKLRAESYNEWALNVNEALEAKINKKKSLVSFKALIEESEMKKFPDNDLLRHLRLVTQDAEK
The assay is described as follows: Histone lysine demethylase AlphaLISA assay, KDM5B. To be noted: in vitro enzyme, read-out: KDM5B IC50 (HDME Inhibition). The protocol:
as §1, §2, §3, §4

The target of assay [4] is T3, KDM6A (UTX) (Homo sapiens, UniProt O15550).
T3 construct: 919-1401; host or cells: E. coli
T3 sequence (O15550 919-1401): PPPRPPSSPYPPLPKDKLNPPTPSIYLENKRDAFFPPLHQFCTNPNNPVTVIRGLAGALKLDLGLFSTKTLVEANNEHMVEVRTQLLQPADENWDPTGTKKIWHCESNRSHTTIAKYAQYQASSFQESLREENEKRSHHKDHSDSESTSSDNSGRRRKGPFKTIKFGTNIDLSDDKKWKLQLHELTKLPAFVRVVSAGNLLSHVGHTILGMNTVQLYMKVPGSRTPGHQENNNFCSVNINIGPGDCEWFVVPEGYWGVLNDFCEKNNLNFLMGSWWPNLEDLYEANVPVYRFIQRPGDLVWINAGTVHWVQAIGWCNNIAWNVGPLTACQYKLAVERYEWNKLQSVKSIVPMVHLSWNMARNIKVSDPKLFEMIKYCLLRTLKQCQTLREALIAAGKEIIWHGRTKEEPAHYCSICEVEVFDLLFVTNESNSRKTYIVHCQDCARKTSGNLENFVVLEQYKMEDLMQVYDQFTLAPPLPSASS
The assay is described as follows: Histone lysine demethylase AlphaLISA assay, KDM6A. To be noted: in vitro enzyme, read-out: KDM6A IC50 (HDME Inhibition). The protocol: as §1, §2, §3, §4

Results on 20 compounds are retold here after patent US20170369444A1, “INHIBITORS OF HISTONE DEMETHYLASES” (Gilead Sciences, Inc., priority 2014, published 2017).

Structures are written as SMILES.

Sequence of PHF8 (KDM7) (Q9UPP1 whole entry): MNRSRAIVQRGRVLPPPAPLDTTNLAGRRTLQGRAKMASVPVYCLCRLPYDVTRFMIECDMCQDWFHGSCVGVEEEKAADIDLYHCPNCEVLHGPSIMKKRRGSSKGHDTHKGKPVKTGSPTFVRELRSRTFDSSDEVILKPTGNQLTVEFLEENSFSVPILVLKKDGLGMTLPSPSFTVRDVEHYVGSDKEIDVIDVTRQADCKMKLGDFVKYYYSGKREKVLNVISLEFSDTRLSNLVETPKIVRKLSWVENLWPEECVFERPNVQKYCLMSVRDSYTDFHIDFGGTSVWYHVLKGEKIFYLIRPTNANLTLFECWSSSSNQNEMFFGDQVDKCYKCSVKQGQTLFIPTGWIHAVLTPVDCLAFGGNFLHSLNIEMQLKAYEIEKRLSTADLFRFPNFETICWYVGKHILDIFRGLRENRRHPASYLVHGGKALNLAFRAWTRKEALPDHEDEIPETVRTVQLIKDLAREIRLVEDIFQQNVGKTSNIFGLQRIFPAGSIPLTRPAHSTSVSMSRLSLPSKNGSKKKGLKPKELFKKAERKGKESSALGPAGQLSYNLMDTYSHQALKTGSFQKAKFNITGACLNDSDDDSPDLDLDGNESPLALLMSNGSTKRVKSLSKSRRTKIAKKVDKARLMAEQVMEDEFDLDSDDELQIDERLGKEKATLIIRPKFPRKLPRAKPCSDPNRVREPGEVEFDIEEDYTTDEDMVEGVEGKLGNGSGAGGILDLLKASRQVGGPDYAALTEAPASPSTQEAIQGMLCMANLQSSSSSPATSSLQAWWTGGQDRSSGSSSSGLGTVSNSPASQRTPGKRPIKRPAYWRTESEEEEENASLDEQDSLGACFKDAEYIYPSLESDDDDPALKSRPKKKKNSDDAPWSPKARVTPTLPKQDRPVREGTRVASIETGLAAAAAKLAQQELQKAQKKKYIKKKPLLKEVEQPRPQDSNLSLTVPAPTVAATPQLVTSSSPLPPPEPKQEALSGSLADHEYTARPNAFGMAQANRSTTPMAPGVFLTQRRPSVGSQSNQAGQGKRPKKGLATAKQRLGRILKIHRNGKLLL

`C=CCN(CC=C)C(=O)[C@@H](CCC(N)=O)NCc1cc(C(=O)O)ccn1` [Compound 25, 2-({[(1R)-1-[bis(prop-2-en-1-yl)carbamoyl]-3-carbamoylpropyl]amino}methyl)pyridine-4-carboxylic acid]: the half-maximal inhibitory concentration (IC50) in assay [1], in assay [2] and in assay [3] was 250 to 2500 nM each time.
With `CC(N[C@@H](C)C(=O)NCc1ccccc1O)c1cc(C(=O)O)ccn1` (stereo partly drawn) [Compound 6, 2-(1-{[(1S)-1-{[(2-hydroxyphenyl)methyl]carbamoyl}ethyl]amino}ethyl)pyridine-4-carboxylic acid], the figures for the IC50 in assay [1], in assay [2] and in assay [4] were 250 to 2500 nM, 250 to 2500 nM and more than 2500 nM, respectively.
On to `CCCC(NCC(=O)N1CCCCC1)c1cc(C(=O)O)ccn1` (stereo not shown) [Compound 45, 2-(1-{[2-oxo-2-(piperidin-1-yl)ethyl]amino}butyl) pyridine-4-carboxylic acid], for which the IC50 in assay [1] and in assay [2] was 250 to 2500 nM in each case.
`C=CCN(CC=C)C(=O)[C@H](CCCCNC(=O)OC(C)(C)C)NCc1cc(C(=O)O)ccn1` [Compound 40, 2-({[(1S)-1-[bis(prop-2-en-1-yl)carbamoyl]-5-{[(tert-butoxy)carbonyl]amino}pentyl]amino}methyl) pyridine-4-carboxylic acid]: the IC50 in assay [1] and in assay [3] was 250 to 2500 nM throughout.
With `C=CCN(CC=C)C(=O)[C@@H](CC(=O)NCCCC)NCc1cc(C(=O)O)ccn1` [Compound 24, 2-({[(1R)-1-[bis(prop-2-en-1-yl)carbamoyl]-2-(butylcarbamoyl)ethyl]amino}methyl)pyridine-4-carboxylic acid], the values for the IC50 in assay [1], in assay [4] and in assay [3] were 250 to 2500 nM, more than 2500 nM and more than 2500 nM, respectively.
Consider `O=C(O)c1ccnc(CN2CCn3ccnc3C2)c1` [Compound 52, 2-{5H,6H,7H,8H-imidazo[1,2-a]pyrazin-7-ylmethyl}pyridine-4-carboxylic acid], for which the IC50 in assay [1] is more than 2500 nM; in assay [4] it was more than 2500 nM; in assay [3], 250 to 2500 nM.
Consider `O=C(O)c1ccnc(CN2CCCCC2CO)c1` (stereo not shown) [Compound 66, 2-{[2-(hydroxymethyl)piperidin-1-yl]methyl} pyridine-4-carboxylic acid], for which the values for the IC50 in assay [1], in assay [2] and in assay [3] were 250 to 2500 nM, more than 2500 nM and more than 2500 nM, respectively.
Regarding `CC(C)C[C@@H]1[C@@H](O)CC(C)N1Cc1cc(C(=O)O)ccn1` (stereo partly drawn) [Compound 59, 2-{[(2R,3S)-3-hydroxy-5-methyl-2-(2-methylpropyl)pyrrolidin-1-yl]methyl}pyridine-4-carboxylic acid], the IC50 in assay [1], in assay [2] and in assay [3] was 250 to 2500 nM each time.
Turning to `C=CCN(CC=C)C(=O)[C@@H](CC(=O)NCC1CC1)NCc1cc(C(=O)O)ccn1` [Compound 18, 2-({[(1R)-1-[bis(prop-2-en-1-yl)carbamoyl]-2-[(cyclopropylmethyl)carbamoyl]ethyl]amino}methyl)pyridine-4-carboxylic acid], the IC50 in assay [1] is 250 to 2500 nM; in assay [4], more than 2500 nM; in assay [3], 250 to 2500 nM.
Take `CCN1CCC[C@H](CNCc2cc(C(=O)O)ccn2)C1=O` [Compound 107, 2-[({[(3R)-1-ethyl-2-oxopiperidin-3-yl]methyl}amino)methyl]pyridine-4-carboxylic acid]: the IC50 in assay [1] was less than 250 nM; in assay [4] it was more than 2500 nM; in assay [3], less than 250 nM.
As to `O=C(O)c1ccnc(CNCc2ccc3ncccc3c2)c1` [Compound 87, 2-{[(quinolin-6-ylmethyl)amino]methyl}pyridine-4-carboxylic acid], the IC50 in assay [1] is 250 to 2500 nM; in assay [2] it was less than 250 nM; in assay [3], less than 250 nM.
As for `CCN(CC)C(=O)CCN(CCO)Cc1cc(C(=O)O)ccn1` [Compound 44, 2-({[2-(diethylcarbamoyl)ethyl](2-hydroxyethyl)amino}methyl)pyridine-4-carboxylic acid], the IC50 is 250 to 2500 nM in assay [1] and less than 250 nM in assay [3].
For the compound `CC1(C)Cc2cccnc2C1NCc1cc(C(=O)O)ccn1` (stereo not shown) [Compound 102, 2-[({6,6-dimethyl-5H,6H,7H-cyclopenta[b]pyridin-7-yl}amino)methyl]pyri-dine-4-carboxylic acid], the IC50 in assay [1], in assay [2] and in assay [3] was 250 to 2500 nM each time.
In the case of `O=C(O)c1ccnc(CNCc2cncc3ccccc23)c1` [Compound 85, 2-{[(isoquinolin-4-ylmethyl)amino]methyl}pyridine-4-carboxylic acid], the IC50 in assay [1] was less than 250 nM; in assay [4] it was more than 2500 nM.
Consider `O=C(O)c1ccnc(CNC2CCc3c(CCc4ccccc4)ccnc32)c1` (stereo not shown) [Compound 96, 2-({[4-(2-phenylethyl)-5H,6H,7H-cyclopenta[b]pyridin-7-yl]amino}methyl)pyri-dine-4-carboxylic acid], for which the IC50 in assay [1] and in assay [2] was less than 250 nM in each case.
For `CC(c1cc(C(=O)O)ccn1)N(C)CC(=O)N1CCCCC1` (stereo not shown) [Compound 47, 2-(1-{methyl[2-oxo-2-(piperidin-1-yl)ethyl]amino}ethyl) pyridine-4-carboxylic acid], the IC50 in assay [1] is 250 to 2500 nM; in assay [3] it was more than 2500 nM.
Taken in the same sequence, the figures for `C=CCN(CC=C)C(=O)[C@H](CC(=O)NCC1(CO)CC1)NCc1cc(C(=O)O)ccn1` [Compound 11, 2-({[(1S)-1-[bis(prop-2-en-1-yl)carbamoyl]-2-({[1-(hydroxymethyl)cyclo-propyl]methyl}carba-moyl)ethyl]amino}methyl)pyridine-4-carboxylic acid] were 250 to 2500 nM and 250 to 2500 nM.
Take `CC(C)C[C@H](NCc1cc(C(=O)O)ccn1)C1CCCO1` (stereo partly drawn) [Compound 60, 2-({[(1S)-3-methyl-1-(oxolan-2-yl)butyl]amino}methyl) pyridine-4-carboxylic acid]: the IC50 in assay [1] is more than 2500 nM; in assay [4], more than 2500 nM; in assay [3] it was less than 250 nM.
As for `CCc1ccnc2c1CCC2NCc1cc(C(=O)O)ccn1` (stereo not shown) [Compound 97, 2-[({4-ethyl-5H,6H,7H-cyclopenta[b]pyridin-7-yl}amino)methyl]pyri-dine-4-carboxylic acid], the IC50 in assay [1], in assay [2] and in assay [3] was less than 250 nM throughout.
Take `COc1ccc(CCCN(CC(=O)N2CCCCC2)Cc2cc(C(=O)O)ccn2)cc1` [Compound 46, 2-({[3-(4-methoxyphenyl)propyl] [2-oxo-2-(piperidin-1-yl)ethyl]amino}methyl) pyridine-4-carboxylic acid]: the IC50 in assay [1] and in assay [2] was 250 to 2500 nM in each case.

In general, IC50 refers to the concentration at which inhibition is half-maximal.
